Entries after “also recorded” stand apart in the source; their conditions may differ.
Tests used:
[1] = test system: apical mucus secretions; experiment: Rheologic measurements of apical mucus secretions from EpiAirway cultures; format: cell-based, human
Experimental: EpiAirway cultures (normal human bronchial epithelial) cells grown on Millipore Transwells, 1 or 4.2 cm^2 surface area. The cells were purchased from MatTek, and were cultured at air-liquid interface for two (mucus synthesis and secretion) or three (mucociliary transport and mucus rheology) weeks prior to use. Following the analysis of clearance, mucus was harvested from the apical surface of the cultures, without dilution. The rheological properties of apical mucus secretions (20 μL) were measured using an AR1000 controlled stress rheometer (TA Instruments, New Castle, Del.) using a parallel plate geometry. The dynamic linear viscoelastic behavior was determined from the strain response to an oscillating stress and reported as a storage or elastic modulus (G′), and loss or viscous (G″) modulus, as a function of frequency ω such that viscosity, η′=G″/ω. Rheologic data can also be presented using vectorial notation as tangent δ which is the ratio of viscosity to elasticity and G*, the vector sum of viscosity and elasticity (mechanical impedance). When stress in the linear range is used to evaluate the materials, the material properties are independent of stress. In order to conduct a frequency sweep from 0.1 to 1000 rad/s, viscoelasticity was evaluated using a creep test at 0.5 Pa for 2 minutes. The strain response was fitted to a discrete relaxation spectrum, transformed to the retardation spectrum, and then to the storage and loss moduli, as a function of frequency, using methods developed by the PI. The linear viscoelasticity was evaluated at 1 and 100 rad/s and an oscillatory stress sweep and steady shear flow experiments were used to evaluate the behavior in the non-linear ranges. The oscillatory sweep data were analyzed by observing the stress where G′ and G″ crossed. […] All rheologic measurements were made by technicians who were blinded to the treatment group origin. For rheology experiments, data were analyzed using the StatView™ 5 statistics package. Raw data were visually confirmed to be normally distributed about the mean. […]

[2] = test system: EpiAirway cultures (normal human bronchial epithelial) cells; experiment: Viability: metabolic activity by Water Soluble Tetrazolium (WST) assay; format: cell-based; conditions: 1 or 6 hr treatment
Experimental: EpiAirway cultures (normal human bronchial epithelial) cells grown on Millipore Transwells, 1 or 4.2 cm^2 surface area. The cells were purchased from MatTek, and were cultured at air-liquid interface for two (mucus synthesis and secretion) or three (mucociliary transport and mucus rheology) weeks prior to use.
The apical surfaces of the cultures were then washed with PBS and the metabolic activity, an indicator of viability, was measured using the Water Soluble Tetrazolium (WST) assay (Boehringer).
Metabolic activity was assessed using the WST assay, separately added to the apical or basal surfaces of the cultures.

[3] = test system: MUC5AC mucins; experiment: MUC5AC mucin secretion and production by ELISA in EpiAirway (NHBE) cultures at air/liquid interface; format: cell-based, human
Experimental: EpiAirway cultures (normal human bronchial epithelial) cells grown on Millipore Transwells, 1 or 4.2 cm^2 surface area. The cells were purchased from MatTek, and were cultured at air-liquid interface for two (mucus synthesis and secretion) or three (mucociliary transport and mucus rheology) weeks prior to use. GUAIFENESIN solutions were prepared by dissolving in PBS (phosphate buffered saline) immediately before treatment of the cells. MUCSAC mucins were quantified by ELISA using 45M1 antibody (Labvision, Fremont, Calif.). Confluent 1 cm^2 NHBE cells grown on an air/liquid interface were washed from the apical surface with 200 μL PBS and incubated with fresh complete growth medium added to the basal chamber. Cultures were incubated 24 hours to collect the apical fluid (pretreatment sample or PT) by adding 100 μL PBS to the apical surface of the cultures. PBS was added to dilute the highly viscous, thin mucus layer on the surface. Because of the small size of the insert, it was not feasible to collect a sufficient amount of mucus for both pharmacology and rheology without the addition of PBS. After collecting 100 μL of the diluted mucus samples (PT), cultures were divided into three groups (6 hr, 24 hr and 48 hr), 16 inserts per group, and treated with varying concentrations of guaifenesin (0, 0.2, 2, 20 μg/mL) for each time group, 4 inserts per each dose. Thus, a total of 48 inserts were used for this study (4 inserts/dose×4 doses/time point×3 time points). The apical fluid was collected at 30 minutes following drug treatment from all the cultures to see whether guaifenesin affects the “secretion” of mucins. The apical mucus sample was collected in two steps—first by adding 100 μL PBS to the apical surface (1st wash) and then by adding 100 μL PBS containing 5 mM dithiothreitol (DTT) (2nd wash). Samples from each wash were assayed for MUC5AC content and the sum of the two values (the 1st and 2nd wash) was expressed as the “released MUC5AC” of the culture. At the three different time points (i.e., 6, 24, and 48 hr), cultures were washed to collect the apical fluid as described above (“released mucin”) and lysed using a lysis buffer (PBS, pH 7.2, […], 2 mM EDTA, 1 mM PSMF and 5 mM DTT) (“cellular mucin”). The amount of mucin in each sample (either secreted, released or cell lysate) was divided by the amount of mucin in the PT sample collected from the same well in order to obtain a “secretory index” to compensate for the variations among the cultures. The treatment protocol is depicted in FIG. 1. For mucin secretion, differences between control and guaifenesin treatment groups were assessed by comparing the means using Student's t-test for unpaired samples and p<0.05 was considered significant. All the values in the figures represent means ±SEM of 4 cultures unless otherwise stated. *p<0.05, **p<0.01

[4] = test system: EpiAirway cultures (normal human bronchial epithelial) cells; experiment: Mucociliary clearance: rate of movement of endogenous cell debris on EpiAirway cultures; format: cell-based
Experimental: EpiAirway cultures (normal human bronchial epithelial) cells grown on Millipore Transwells, 1 or 4.2 cm^2 surface area. The cells were purchased from MatTek, and were cultured at air-liquid interface for two (mucus synthesis and secretion) or three (mucociliary transport and mucus rheology) weeks prior to use. For mucociliary clearance, a stock guaifenesin solution of 2 mg/mL in culture medium was prepared in the morning of each experiment and kept cold until dilution into warmed medium to the target concentrations of 0.2, 2, 20 or 200 μg/mL. The medium in the basolateral compartment of each culture was replaced with the GGE-containing medium, and the cultures were returned to the 37° C., 5% CO2 incubator for as the times indicated. The experiments were repeated three times on independent cultures. Cultures (4.2 cm^2) were exposed to basolateral guaifenesin for 1 or 6 hr. […] The rate of movement of endogenous cell debris was analyzed on the video images using a transparent template overlay on the video images and a stopwatch to measure at least 5 particles on each culture, for a total of between 30 and 45 measurements per condition. For mucociliary clearance, differences between control and guaifenesin treatment groups were assessed by comparing the means using ANOVA, with a Bonferroni post-test to assess differences from the controls tested at the same time after treatment. […]

[5] = 24 hour treatment, 2 μg/mL or 20 μg/mL

`COc1ccccc1OCC(O)CO` (centres unmarked) [guaifenesin, 3-(2-methoxyphenoxy)-1,2-propanediol] was tested, and the “viscosity, elasticity and complex modulus (G*) of mucus” value (“viscosity … of mucus” below) ([1]; 1 rad/s (ciliary frequency), 1 hour, p<0.05) was “dose-dependent decrease”, the “viscosity … of mucus” value ([1]; 1 rad/s (ciliary frequency), 6 hours, p<0.01) was “dose-dependent decrease” and the “viscosity … of mucus” value ([1]; 100 rad/s (corresponding to cough)) was “not significantly”. For the same compound, the “viability of the cells (WST assay)” value [2] was “no adverse effect on the viability”, the “metabolic activity (WST assay)” value ([2]; did not reach statistical significance) was “trend to increased metabolic activity” and the “secreted MUC5AC versus control” value ([3]; 30 min treatment, 0.2, 2, 20 μg/mL) was “no significant difference”. The “total amounts of mucins produced” value ([3]; 6 hour treatment, 2 μg/ml and 20 μg/ml) was “significantly (p<0.01) suppressed; also recorded: suppressed the production of mucins”, the “amounts of mucins released” value ([3]; 6 hours treatment, NHBE cells) was “did not affect” and the mucin production [3, 5] was “significantly suppressed; also recorded: suppressed the production of mucins”. For the same compound, the mucin release [3, 5] was “significantly suppressed; also recorded: significant (p<0.05) decrease in mucin release”, the “amount of mucin released” value ([3]; 48 hours treatment) was “did not seem to be significantly affected” and the production of mucins ([3]; 48 hours treatment, 2 μg/mL and 20 μg/mL) was “significantly (p<0.01) suppressed; also recorded: suppressed the production of mucins”. For the same compound, the “mucociliary clearance (mobility of cellular debris on culture surface)” value ([4]; 1 hr treatment, only 2 μg/ml statistically significant, little dose-response) was “appeared to increase the mobility of the cellular debris” and the “mucociliary clearance (movement of surface material)” value ([4]; 6 hr treatment, all three concentrations tested, strong trend to a dose response) was “significantly faster than the control”.

Source: patent US20170196821A1, “Method of Inhibiting Mucin Secretion” (Reckitt Benckiser LLC, priority 2009, published 2017)
